Entries after “also recorded” stand apart in the source; their conditions may differ.
Tests used:
MCF-7/AdrVp = details: subline selected with doxorubicin in the presence of verapamil; cited from earlier work
[1] = test system: cells that overexpress Pgp or MRP; details: cited from earlier work
[2] = test system: BCRP-transfected MCF-7 cells; experiment: FTC effects on BBR3390 accumulation and retention, flow cytometry; assay type: cell-based, human; details: 10 uM FTC
Description: MCF-7 cells transfected with either the pcDNA3 empty vector or pcDNA3 containing the full-length BCRP cDNA (transfectant clone 8) were cultured as monolayers in tissue culture flasks. The effects of FTC on the accumulation of the aza-anthrapyrazole BBR3390 were measured by exposing these cells to the fluorescent aza-anthrapyrazole BBR3390 (5 uM) in the presence or absence of 10 uM FTC for 60 minutes. Then, the cells were removed from the flasks by trypsinization, and intracellular BBR3390 content was measured by flow cytometry. The effects of FTC on BBR3390 retention were measured by exposing another set of cells (vector control and transfectant clone 8) to 5 uM BBR3390 with and without 10 uM FTC for 60 minutes, washing the cells free of drug, then reincubating the cells for an additional 30 minutes in fresh medium with and without FTC. Intracellular BBR3390 content was measured by flow cytometry. (See FIG. 10).

[3] = test system: MCF-7/BCRP transfectant clones 6 and 8; experiment: Sulforhodamine-B (SRB) cytotoxicity assay; assay type: cell-based, human; details: compared to clone 19, MCF-7 cells or empty vector-transfected controls
Description: (§1) The full-length BCRP cDNA was inserted into the multiple to cloning site of expression vector pcDNA3 (Invitrogen). Following subcloning of the pcDNA3-BCRP construct, DNA sequence analysis was performed to confirm that the insert in the clone that was chosen was in a sense orientation to the CMV promoter of the pcDNA3 vector. MCF-7 cells were transfected with pcDNA3-BCRP, using the calcium phosphate precipitation method (17), selected by culture with geneticin (G418, 1 mg/ml), then subclone by limiting dilution in 96 well flat-bottomed culture plates. Subclones were tested for expression of BCRP mRNA by Northern blot analysis, using radiolabeled Clone 8 cDNA as a probe (FIG. 4A). As a control, MCF-7 cells were also transfected with the empty pcDNA3 vector, then selected by growth in medium containing 1 mg/ml G418 (FIG. 4A).
The sensitivities of the various transfected sublines to chemotherapeutic agents were tested by the sulforhodamine-B (SRB) cytotoxicity assay (14). The LC50, defined as the concentration of drug that caused lethality to 50% of the cells, was calculated. From this, the “Fold of Resistance” (RF) was calculated by dividing the LC50 for a given drug against a transfected cell line by the LC50 of that drug against non-transfected MCF-7 cells. […] FIG. 5 contains the median LC50 values for multiple cytotoxicity experiments for all cell lines and drugs tested. […] The asterisk and solid line in FIG. 4D indicate MCF-7/W cells, the closed squares and dotted lines represent MCF-7/pcDNA3-BCRP clone 8 cells. The vertical bars in the figure represent the standard deviation of six replicate determinations.

MCF-7/AdrVp cells = details: MCF-7/AdrVp vs MCF-7; cited from earlier work
EPP85-181RDB = details: pancreatic; cited from earlier work
[4] = test system: BCRP-overexpressing clones 6 and 8 (MCF-7 cells transfected with pcDNA3-BCRP); experiment: Daunorubicin accumulation and retention by flow cytometry; assay type: cell-based, human
Description: as §1
Daunorubicin accumulation and retention was examined in the transfected cells by means of flow cytometry.

EPG85-257RDB = details: gastric; cited from earlier work
MCF-7/Adr = details: breast; cited from earlier work
H69/AR = details: small cell lung; cited from earlier work
H209/V6 = details: H209/V6, small cell lung; cited from earlier work
MCF-7/VP = details: breast; cited from earlier work
MCF-7/MTX = details: breast; cited from earlier work
MCF-7/MXPR = details: breast; cited from earlier work
H209/MX4 = details: H209/MX4, small cell lung; cited from earlier work
MCF-7/Mitox = details: breast; cited from earlier work
MCF-7/MXRS250 = details: MCF-7/MXRS250, breast; cited from earlier work
HT29RNOV = details: colon; cited from earlier work
S1M1-3.2 = details: S1M1-3.2, colon; cited from earlier work
EPP85-181RNOV = details: pancreatic; cited from earlier work
MCF-7/MXRS600 = details: MCF-7/MXRS600, breast; cited from earlier work
8226/MR20 = details: 8226/MR20, myeloma; cited from earlier work
EPF86-079RNOV = details: fibrosarcoma; cited from earlier work
H209/MX2 = details: H209/MX2, small cell lung; cited from earlier work
MDA-MB-231RNOV = details: breast; cited from earlier work
EPG85-257RNOV = details: gastric; cited from earlier work
HL-60/MX2 = details: HL-60/MX2, leukemia; cited from earlier work

In the case of `COc1cccc2c1C(=O)c1c(O)c3c(c(O)c1C2=O)CC(O)(C(=O)CO)CC3OC1CC(N2CCOCC2C#N)C(O)C(C)O1` (stereo not shown) [3′-deamino-3′[3-cyano-4-morpholinyl]doxorubicin], the “cross-resistance of MCF-7/AdrVp subline” value (MCF-7/AdrVp) is listed as “marked cross-resistance”.
For `COc1ccc2c3c([nH]c2c1)[C@H](C=C(C)C)N1C(=O)[C@@H]2CCCN2C(=O)[C@@H]1C3` [FTC, Fumitremorgin C], the reversal of resistance [1] is listed as “does not reverse resistance”, the “effect on accumulation of BBR 3390” value ([2]; 5 uM BBR3390, 60 minutes) is listed as “able to enhance the accumulation” and the “effect on efflux of BBR 3390” value ([2]; 5 uM BBR3390, 60 minutes then 30 minutes in fresh medium) is listed as “inhibit the efflux”.
For `N.N.[Cl][Pt][Cl]` [cisplatin], the “cross-resistance of MCF-7/AdrVp subline” value (MCF-7/AdrVp) is listed as “remains sensitive” and the “resistance / sensitivity of BCRP-overexpressing clones 6 and 8 to chemotherapeutic agent” value (“resistance / sensitivity” for short) [3] is listed as “remained relatively sensitive”.
For `COc1cccc2c1C(=O)c1c(O)c3c(c(O)c1C2=O)C[C@@](O)(C(C)=O)C[C@@H]3O[C@H]1C[C@H](N)[C@H](O)[C@H](C)O1` [daunorubicin], the “cross-resistance of MCF-7/AdrVp subline” value (MCF-7/AdrVp) is given as “marked cross-resistance”, the “resistance / sensitivity” value [3] is given as “displayed resistance” and the “intracellular accumulation compared to MCF-7 cells” value (MCF-7/AdrVp cells) is given as “marked reduction”. For the same compound, the “Fold resistance to selecting agent” value (EPP85-181RDB) was 846 fold, the “intracellular steady-state concentration of drug, of that attained in the vector control cells” value ([4]; MCF-7/BCRP clone 6 vs pcDNA3 vector control cells) was roughly 50% and the “intracellular steady-state concentration of drug, of that attained in the vector control cells” value ([4]; MCF-7/BCRP clone 8 vs pcDNA3 vector control cells) was “approximately 30%”. For the same compound, the “Fold resistance to selecting agent” value (EPG85-257RDB) was 1,857 fold.
For `COc1cccc2c1C(=O)c1c(O)c3c(c(O)c1C2=O)C[C@@](O)(C(=O)CO)C[C@@H]3O[C@H]1C[C@H](N)[C@H](O)[C@H](C)O1` [doxorubicin], the “resistance / sensitivity” value [3] is listed as “displayed resistance”, the “Fold resistance to selecting agent” value (MCF-7/Adr) is listed as 192 fold and the “Fold resistance to selecting agent” value (H69/AR) is listed as 100 fold.
For `COc1cc([C@@H]2c3cc4c(cc3[C@@H](O[C@@H]3O[C@@H]5CO[C@@H](C)O[C@H]5[C@H](O)[C@H]3O)[C@H]3COC(=O)[C@H]23)OCO4)cc(OC)c1O` [etoposide], the “Fold resistance to selecting agent” value (H209/V6) is given as 22 fold and the “Fold resistance to selecting agent” value (MCF-7/VP) is given as 26 fold.
In the case of `CC(=O)[C@]1(O)Cc2c(O)c3c(c(O)c2[C@@H](O[C@H]2C[C@H](N)[C@H](O)[C@H](C)O2)C1)C(=O)c1ccccc1C3=O` [idarubicin], the “cross-resistance of MCF-7/AdrVp subline” value (MCF-7/AdrVp) is given as “not” and the “resistance / sensitivity” value [3] is given as “remained relatively sensitive”.
In the case of `CN(Cc1cnc2nc(N)nc(N)c2n1)c1ccc(C(=O)N[C@@H](CCC(=O)O)C(=O)O)cc1` [methotrexate], the “Fold resistance to selecting agent” value (MCF-7/MTX) is listed as 1,000 fold.
In the case of `O=C1c2c(O)ccc(O)c2C(=O)c2c(NCCNCCO)ccc(NCCNCCO)c21` [mitoxantrone], the “cross-resistance of MCF-7/AdrVp subline” value (MCF-7/AdrVp) is given as “marked cross-resistance”, the “resistance / sensitivity” value [3] is given as “displayed resistance; also recorded: greatest degree of resistance” and the “Fold resistance to selecting agent” value (MCF-7/MXPR) is given as 270 fold. The “Fold resistance to selecting agent” value (H209/MX4) was 4 fold, the “Fold resistance to selecting agent” value (MCF-7/Mitox) was 1,206 fold and the “Fold resistance to selecting agent” value (MCF-7/MXRS250) was 4,600 fold. For the same compound, the “Fold resistance to selecting agent” value (HT29RNOV) was 100 fold, the “Fold resistance to selecting agent” value (S1M1-3.2) was 1,435 fold and the “Fold resistance to selecting agent” value (EPP85-181RNOV) was 27 fold. The “Fold resistance to selecting agent” value (MCF-7/MXRS600) was 7,450 fold, the “Fold resistance to selecting agent” value (8226/MR20) was 36 fold and the “Fold resistance to selecting agent” value (EPF86-079RNOV) was 7 fold. The “Fold resistance to selecting agent” value (H209/MX2) was 2 fold, the “Fold resistance to selecting agent” value (MDA-MB-231RNOV) was 93 fold and the “Fold resistance to selecting agent” value (EPG85-257RNOV) was 457 fold. The “Fold resistance to selecting agent” value (HL-60/MX2) was 35 fold.
For `CC(=O)O[C@H]1C(=O)[C@@]2(C)[C@H]([C@H](OC(=O)c3ccccc3)[C@]3(O)C[C@H](OC(=O)[C@H](O)[C@@H](NC(=O)c4ccccc4)c4ccccc4)C(C)=C1C3(C)C)[C@]1(OC(C)=O)CO[C@@H]1C[C@@H]2O` [paclitaxel], the “cross-resistance of MCF-7/AdrVp subline” value (MCF-7/AdrVp) is given as “remains sensitive” and the “resistance / sensitivity” value [3] is given as “remained relatively sensitive”.
In the case of rhodamine 123, the “intracellular accumulation compared to MCF-7 cells” value (MCF-7/AdrVp cells) is given as “marked reduction”.
